From patent publication US6825236B2, “Colchicine derivatives” (California Pacific Medical Center, priority 2003, dated 2004)

Assays:
[1] = tested on: MTG-B mouse mammary adenocarcinoma; experiment: In vivo efficacy in mice bearing MTG-B tumors; parameters: species or system C3H/HeJ mice; conditions: for Surviving days after treatment of MTG-B mouse mammary adenocarcinoma in C3H/Hcj mice: i.p., days from day 0, survival time of control mice generally 6 days; for T/C %: surviving days of treated mice / surviving days of control mice x 100%
Description: This example provides directions for performing in vivo efficacy tests of the compounds of the invention on C3H/HeJ mice bearing MTG-B tumors.
Studies on the compounds of this invention are performed on C3H/HeJ mice bearing MTG-B tumors. The tumors grow exponentially following implantation into the flanks of the mice and reached a diameter of 8 mm (268.08 mm^3) by day 7 to 10. Treatment is initiated at that time, with the first day of treatment designated as day 0 for calculation and plots. The mice are injected i.p. with three drug dose levels (⅓, ½, 1 5 MTD) using both a single injection and the schedule of Q2D 5 3 (every 2 days for a total of 3 treatments at ⅓ MTD). Control groups of mice bearing 8 mm diameter tumors are treated with vehicle alone. After drug treatment, the mice are observed twice a day. When a tumor reaches 1.5 g, the mouse bearing the tumor wis euthanized. Surviving days measured from day 0 for mice treated with anticancer drugs (T) and surviving days measured from day 0 for control mice (C) are recorded. Tumor growth inhibition values (T/C %) are calculated using the formula T/C %=(surviving days of mice treated with an anticancer drug T/surviving days of control mice C) 5 100%.
Tumor sizes may be measured by caliper every day. Daily measurement (mm) of solid tumor (length L and width W) in two dimensions is used to calculate the tumor weight [tumor weight=(length 5 width^2)/2] based on the interchangeable value of 1 mm^3=1 mg. Tumor growth delay (T−C value) is determined by calculation of the median time (in days) required for the treatment group and control group tumors to reach 1,000 mg. Tumor doubling time (Td) is measured, and tumor cell kill is calculated by the formula of log cell kill=(T−C value)/(3.32 5 Td). Regression effects after treatment may be observed and recorded (a complete regression: a regression below limit of palpation; a partial regression: a regression of more than 50% reduction in tumor mass).
Generally, the survival time of the control mice is six (6) days. A ratio of the extra days of survival of mice treated with the compounds of the invention (compared to control) to the extra days of survival of mice treated with taxol (compared to control), can be calculated. For example, if the mice survived 18 days as compared to 9 days for taxol-treated mice, the CD/Taxol ratio would be 18−6/9−6=12/3=4 or 400%.
The following Table II provides a summary of the in vivo toxicity and iv vivo efficacy tests described in Examples 41 and 42 for the compounds tested.

C3H/HeJ mice = experiment: In vivo toxicity (MTD / nontoxicity dose), intraperitoneal injection; conditions: highest dose causing no severe irreversible toxicity
Description: This example provides directions for performing in vivo toxicity tests of the compounds of the invention on C3H/HeJ mice.
Acute toxicities of the compounds of this invention are evaluated on C3H/HeJ mice (body weight 18-22 g). The MTD40 (maximum tolerated dose at day 40) values are determined by the standard procedure described by Gad and Chengelis (see, for example, “Acute Toxicology Testing,” 2nd Ed., Shayne O. Gad and Christopher P. Chengelis, pp. 186-195 (Academic Press).) In the consecutive type studies, 2 mice are dosed at low and moderate doses of 40 and 100 mg/kg. If no severe and irreversible toxicity (euthanasia is required) occurs at these doses, a new pair of animals is initiated at 180 mg/kg, which is 1.8 times higher than 100 mg/kg. Sequential dosages (about 3 doses on 3 pairs of animals, i.e. 2 mice for each drug dose) are increased by a factor of 1.8 until severe and irreversible toxicity (euthanasia is required) occurred. Then another pair of animals is initiated at the highest nonlethal dosage, and successive dosages were increased by a factor of 1.15. The result of this exercise is two dosages, one apparently nonlethal and the other lethal if severe and irreversible toxicity occurs and euthanasia is required, separated by a factor of 1.15. Six mice are dosed at each dosage. If no severe and irreversible toxicity occurs at the lower dosage and at least one with severe and irreversible toxicity occurs at the higher dose, then the lower dose is considered to be the MTD. The compounds of this invention are administered to C3H/HeJ mice by intraperitoneal injection (IP). Drug toxicity is evaluated on mice checked daily for 45 days. The toxicity parameters reported will be the MTD40.

HCT116 = experiment: Cell colony formation assay; type: cell-based; conditions: 72 hours with drug, colonies counted after 7 days
Description: This example provides directions for growing cells and testing compounds of the invention for their effect on the growth of the cells. All cells were purchased from DCTDC Tumor Repository, NCI, NIH.
Cell Colony Formation Assay
Four hundred cells (HCT 116, PC-3) or five hundred cells (VM46) were plated in 60 mm Petri dishes containing 2.7 ml of medium (modified McCoy's 5a medium) containing 10% fetal bovine serum and 100 units/ml penicillin and […] streptomycin. The cells were incubated in a CO2 incubator at 37° C. for 5 hours for attachment to the bottom of Petri dishes. Drugs were made fresh in medium at ten times the final concentration, and then 0.3 ml of this stock solution was added to the 2.7 ml of medium in the dish. The cells were then incubated with drugs for 72 hours at 37° C. At the end of the incubation the drug-containing media were decanted, the dishes were rinsed with 4 ml of Hank's Balance Salt Solution (HBSS), 5 ml of fresh medium was added, and the dishes were returned to the incubator for colony formation. The cell colonies were counted using colony counter after incubation for 7 days for HCT116 cells and PC-3 cells and 8 days for VM46 cells, respectively.
Values of ID50 (the drug concentration producing 50% inhibition of colony formation) may be determined for each tested compound. The directions described in this example may be used in other cells, such as DU-145.

| Compound | Surviving days after treatment of MTG-B mouse mammary adenocarcinoma in C3H/Hcj mice [1] [days] | T/C % [1] [%] | In Vivo Toxicity Nontoxicity Dose (ip. mg/kg) in C3H/Hej mice (C3H/HeJ mice) | Survival (%) of HCT116 (HCT116; 10 nM) [%] | Survival (%) of HCT116 (HCT116; 100 nM) [%] | Survival (%) of HCT116 (HCT116; 1 nM) [%] |
| --- | --- | --- | --- | --- | --- | --- |
| COc1cc2c(c(OC)c1OC)-c1ccc(SC)c(=O)cc1C(NC(=O)COc1ccc(Br)cc1)CC2 (centres unmarked) [Compound 000815, N-Deacetyl-N-(4-bromophenoxyacetyl)thiocoichicine] | 9 | 150 | 100 (100) mg/kg | 93.8 | 0 |  |
| COc1cc2c(c(OC)c1OC)-c1ccc(SC)c(=O)cc1C(NC(=O)COc1ccc(I)cc1)CC2 (centres unmarked) [Compound 000816, N-Deacetyl-N-(4-iodophenoxyacetyl)thiocolchicine] |  |  | 100 mg/kg | 100 | 0 |  |
| COc1cc2c(c(OC)c1OC)-c1ccc(SC)c(=O)cc1C(NC(=O)c1cccc(NC(=O)CCl)c1)CC2 (centres unmarked) [Compound 000911, N-Deacetyl-N-(3-chloroacetaminobenzoyl)thiocolchicine] | 11 | 183 | 30 (30) mg/kg | 0 | 0 | 100 |
| N-Deacetyl-N-(4-methoxyphenoxyacetyl)thiocolchicine [Compound 000818] | 8 |  |  | 98.8 | 0 |  |
| COc1cc2c(c(OC)c1OC)-c1ccc(OC)c(=O)cc1C(NC(C)=O)CC2 (centres unmarked) [Colchicine] | 9 | 150 | 1.6 (0.5) mg/kg | 76.1 | 0 | 100 |
| COc1cc2c(c(OC)c1OC)-c1ccc(SC)c(=O)cc1C(NC(=O)COc1ccccc1[N+](=O)[O-])CC2 (centres unmarked) [Compound 000830, N-Deacetyl-N-(2-nitrophenoxyacetyl)thiocolchicine] | 8 | 133 | 150 (120) mg/kg | 9.01 | 0 |  |
| COc1cc2c(c(OC)c1OC)-c1ccc(SC)c(=O)cc1C(NC(=O)COc1ccc(F)cc1)CC2 (centres unmarked) [Compound 000811, N-Deacetyl-N-(4-fluorophenoxyacetyl)thiocolchicine] |  |  | 150 mg/kg | 50.4 | 0 |  |
| COc1cc2c(c(OC)c1OC)-c1ccc(SC)c(=O)cc1C(NC(=O)c1ccc([N+](=O)[O-])o1)CC2 (centres unmarked) [Compound 000906, N-Deacetyl-N-(5-nitro-2-furnancarbonyl)thiocolchicine] |  |  | 50 mg/kg | 0 | 0 | 98.67 |
| COc1cc2c(c(OC)c1OC)-c1ccc(SC)c(=O)cc1C(NC(=O)c1cc(=O)c3ccccc3o1)CC2 (centres unmarked) [Compound 000914, N-Deacetyl-N-(chromone-2-carbonyl)thiocolchicine] |  |  | 150 (120) mg/kg | 3.54 | 0 |  |
| COc1cc2c(c(OC)c1OC)-c1ccc(SC)c(=O)cc1C(NC(=O)COc1cc(C)ccc1C)CC2 (centres unmarked) [Compound 000817, N-Deacetyl-N-(2,5-dimethylphenoxyacetyl)thiocolchicine] |  |  | 100 mg/kg | 99.8 | 0 |  |
| COc1cc2c(c(OC)c1OC)-c1ccc(SC)c(=O)cc1C(NC(=O)COc1ccc(Cl)cc1)CC2 (centres unmarked) [Compound 000814, N-Deacetyl-N-(4-chlorophenoxyacetyl)thiocolchicine] |  |  | 100 mg/kg | 87.7 | 0 |  |
| COc1cc2c(c(OC)c1OC)-c1ccc(SC)c(=O)cc1C(NC(=O)COc1ccc(C=O)cc1)CC2 (centres unmarked) [Compound 000829, N-Deacetyl-N-(4-formylphenoxyacetyl)thiocolchicine] | 13 | 217 | 150 (120) mg/kg | 0 | 0 | 100 |
| COc1cc2c(c(OC)c1OC)-c1ccc(SC)c(=O)cc1C(NC(=O)CCC(=O)c1ccc(Br)cc1)CC2 (centres unmarked) [Compound 000926, N-Deacetyl-N-(3-[4-bromobenzoyl]propionyl)thiocolchicine] |  |  |  | 100 | 0 |  |
| COc1ccc(OCC(=O)N[C@H]2CCc3cc(OC)c(OC)c(OC)c3-c3ccc(SC)c(=O)cc32)cc1 [Compound 000825, N-Deacetyl-N-(4-methoxyphenoxyacetyl)thiocolchicine] | 18 |  | 50 (30) mg/kg | 0 | 0 | 90.25 |
| COc1cc2c(c(OC)c1OC)-c1ccc(SC)c(=O)cc1C(NC(=O)COc1c(F)c(F)c(F)c(F)c1F)CC2 (centres unmarked) [Compound 000912, N-Deacetyl-N-(2,3,4,5,6-pentafluorophenoxyacetyl)thiocolchicine] |  |  |  | 100 | 0.50 |  |
